The values below come from patent US6670364B2, “Antagonists of MCP-1 function and methods of use thereof” (Telik, Inc., priority 2001, dated 2003).

Where a name gives a salt, the structure may show the parent alone.

Chain of hMCP-1 (P13500 24-99): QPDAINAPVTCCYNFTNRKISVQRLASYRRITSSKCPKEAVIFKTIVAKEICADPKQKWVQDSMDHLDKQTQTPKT

One experiment has as its system ICR male mice. In words: Thioglycollate-induced inflammation model (Example 18). Format: in vivo. The following applies: 2 mg/kg s.c., repeated immediately after broth injection and 3 h later; peritoneal cavity at 72 h; mouse. The method, then:
3% Brewer's thioglycollate broth (Difco, Detroit, Mich.) was injected into the peritoneal cavity of ICR male mice, followed by subcutaneous administration of the test compound. The same dose of test compound was again administered immediately after the broth injection and 3 h later. After 72 h, the number of total elicited cells and MOMA2-positive cells in the peritoneal cavity was analyzed using an EPICS XL Beckman Coulter.
For the molecule `Cc1nn(C)c2ncc(C(=O)NC(=O)Nc3ccc(C(=O)N4CCN(C)CC4)c(Cl)c3)c(N3CCN(C)CC3)c12` [Compound 97], the “MOMA2-positive Cells (× 10^6)” value was 4.1 ± 0.3 × 10^6 and the “Total Cells (× 10^6)” value was 6.4 ± 0.6 × 10^6.

The experiment is the same for the next values; noted with them: 10 mg/kg s.c., repeated immediately after broth injection and 3 h later; peritoneal cavity at 72 h; mouse.
`Cc1nn(C)c2nc(N(C)CCN(C)C)c(C(=O)NC(=O)Nc3ccc(F)c(C(F)(F)F)c3)cc12` [Compound 116, (6-{[2-(Dimethylamino)ethyl]methylamino}-1,3-dimethylpyrazolo[5,4-b]-pyridin-5-yl)-N-({[4-fluoro-3-(trifluoromethyl)phenyl]amino}carbonyl)-carboxamide hydrochloride]: the “MOMA2-positive Cells (× 10^6)” value is recorded as 3.0 ± 0.8 × 10^6 and the “Total Cells (× 10^6)” value is listed as 4.2 ± 1.1 × 10^6.

For the next experiment, the target named is hMCP-1 (Homo sapiens, UniProt P13500). The experiment can be described thus: Inhibition of MCP-1-induced chemotaxis (48-well chamber, Example 21). Format: cell-based. Set-up: purchased PeproTech. The note with it: THP-1 cells, 2.5 nM hMCP-1, 48-well chamber, 2 hr. On the procedure:
A 48-well microchemotaxis chamber with a 5 μm-pore size, PVP-coated polycarbonate filter membrane (Neuro Probe Inc., Cabin John, Md.) was used for testing. Compounds were prepared as 10 mM stock solution in DMSO. THP-1 cells were washed with RPMI 1640 medium supplemented with 0.5% BSA and 25 mM HEPES, pH 7.4, and suspended at a density of 4×10^6 cells/mL in the same medium. A 150 μL aliquot of this suspension was treated with an equal volume of test compound solution and the mixture incubated at 37° C. for 15 min. The lower chamber was loaded with 26 μL of a 2.5 nM solution of hMCP-1 (PeproTech) in medium. The filter membrane was placed over the lower chamber, followed by a silicon rubber gasket and the upper chamber. A 50 μL aliquot of the THP-1 cell suspension containing the test compound was added to the upper chamber and the assembly incubated in a 5% CO2 atmosphere at 37+ C. for 2 hr. The chamber was then disassembled and the cells remaining on the upper surface of the filter were scrapped off with a rubber scrapper. The filter was fixed with methanol, stained with Diff-Quik solution, and mounted on a slide glass. The cells that had migrated across the filter onto the lower surface were then counted by microscopic observation.
For `Cc1nn(C)c2ncc(C(=O)NC(=O)Nc3cccc(C(C)C)c3)c(N3CCN(C)CC3)c12` [Compound 74], 4 µM corresponded to half-maximal inhibition (IC50).

As to `Cc1nn(C)c2ncc(C(=O)NC(=O)Nc3ccc(Cl)c(C(=O)OC(C)C)c3)c(N3CCN(C)CC3)c12` [Compound 92], it took 2.1 µM to reach half-maximal inhibition (IC50).

Turning to `Cc1nn(C)c2ncc(C(=O)NC(=O)Nc3ccc(O)c(C(F)(F)F)c3)c(N3CCN(C)CC3)c12` [Compound 87], the IC50 – broadly, the concentration that gives 50% inhibition – worked out at 4 µM.

Molecule `Cc1nn(C)c2ncc(C(=O)NC(=O)Nc3ccc(Cl)c(C(=O)N4CCOCC4)c3)c(N3CCN(C)CC3)c12` [Compound 95] came in with an IC50 of 1.9 µM.

Regarding `Cc1nn(C)c2ncc(C(=O)NC(=O)Nc3ccc(F)c(C(F)(F)F)c3)c(NCc3ccccc3)c12` [Compound 61], the IC50 worked out at 20 µM.

In the case of `Cc1nn(C)c2ncc(C(=O)NC(=O)Nc3ccc(F)c(C(F)(F)F)c3)c(N3CCCN(C)CC3)c12` [Compound 108, [1,3-Dimethyl-4-(4-methyl(1,4-diazaperhydroepinyl))pyrazolo[5,4-b]pyridin-5-yl]-N-({[4-fluoro-3-(trifluoromethyl)phenyl]amino}carbonyl)carboxamide hydrochloride], half-maximal inhibition (IC50) required 2 µM.

`Cc1ccc(NC(=O)NC(=O)c2cnc3c(c(C)nn3C)c2N2CCN(C)CC2)cc1C(F)(F)F` [Compound 83]: half-maximal inhibition (IC50) required 4 µM.

Molecule `Cc1nn(C)c2ncc(C(=O)NC(=O)Nc3cccc(OC(F)(F)F)c3)c(N3CCN(C)CC3)c12` [Compound 77] had an IC50 of 0.7 µM. This IC50 lies about 5.7-fold lower than the previous one.

`Cc1nn(C)c2ncc(C(=O)NC(=O)Nc3cccc(Cl)c3)c(N3CCN(C)CC3)c12` [Compound 68]: the IC50 amounted to 4 µM.

Consider `Cc1nn(C)c2ncc(C(=O)NC(=O)Nc3ccc(F)c(C(F)(F)F)c3)c(-[n+]3ccc(N)cc3)c12` [Compound 106, 4-Amino-1-{5-[N-({[4-fluoro-3-(trifluoromethyl)phenyl]amino}carbonyl)carbamoyl]-1,3-dimethylpyrazolo[5,4-b]pyridin-4-yl}pyridinium chloride], for which the half-maximal inhibitory concentration (IC50) came to 0.4 µM.

Take `Cc1nn(C)c2ncc(C(=O)NC(=O)Nc3cccc(C(F)(F)F)c3)c(N3CCN(C)CC3)c12` [Compound 72]: the IC50 is 3.6 µM.

For `Cc1nn(C)c2ncc(C(=O)NC(=O)Nc3ccc(C(=O)N4CCN(C)CC4)c(Cl)c3)c(N3CCN(C)CC3)c12` [Compound 97], the half-inhibitory concentration (IC50) is 1.1 µM.

Molecule `Cc1nn(C)c2ncc(C(=O)NC(=O)Nc3ccc(F)c(C(F)(F)F)c3)c(N3CCCCC3)c12` [Compound 64, (1,3-Dimethyl-4-piperidylpyrazolo[5,4-b]pyridin-5-yl)-N-({[4-fluoro-3-(trifluoromethyl)-phenyl]amino}carbonyl)carboxamide] returned an IC50 of 2 µM.

Regarding `Cc1nn(C)c2ncc(C(=O)NC(=O)Nc3ccc(C(=O)N4CCOCC4)c(Cl)c3)c(N3CCN(C)CC3)c12` [Compound 94], the IC50 was determined as 1.2 µM. Against the preceding molecule, the IC50 is about 1.7-fold lower.

As for `Cc1nn(C)c2ncc(C(=O)NC(=O)Nc3ccc(F)c(C(F)(F)F)c3)c(NCCC34CCCN3CCC4)c12` [Compound 60, {1,3-Dimethyl-4-[(2-perhydropyrrolizin-7a-ylethyl)amino]pyrazolo[5,4-b]pyridin-5-yl}-N-({[4-fluoro-3-(trifluoromethyl)phenyl]amino}carbonyl)carboxamide hydrochloride], the midpoint of inhibition, the IC50, lay at 1.2 µM.

The molecule `Cc1nn(C)c2ncc(C(=O)NC(=O)Nc3ccc(F)c(C(F)(F)F)c3)c(N(CCO)CCO)c12` [Compound 51, {4-[Bis(2-hydroxyethyl)amino]-1,3-dimethylpyrazolo[5,4-b]pyridin-5-yl}-N-({[4-fluoro-3-(trifluoromethyl)phenyl]amino}carbonyl)carboxamide] yielded an IC50 of 1.6 µM.

In turn, “[4-(4-Ethylpiperazinyl)-1,3-dimethylpyrazolo[5,4-b]pyridin-5-yl]-N-({[4-fluoro-3-(trifluoromethyl)phenyl]amino}carbonyl)carboxamide hydrochloride [Compound 100]” showed an IC50 of 0.38 µM. Against the preceding molecule, the IC50 is about 4.2-fold lower.

`Cc1nn(C)c2ncc(C(=O)NC(=O)Nc3ccc(Cl)cc3)c(N3CCN(C)CC3)c12` [Compound 70] showed an IC50 of 4 µM.

In turn, `Cc1nn(C)c2ncc(C(=O)NC(=O)Nc3cccc(C(F)(F)F)c3)c(N3CCN(C)CC3)c12` [Compound 73] had an IC50 of 1.7 µM.

As to `Cc1nn(C)c2ncc(C(=O)NC(=O)Nc3ccc(F)c(C(F)(F)F)c3)c(O)c12` [Compound 43, N-({[4-fluoro-3-(trifluoromethyl)phenyl]amino}carbonyl)(4-hydroxy-1,3-dimethylpyrazolo[5,4-b]pyridin-5-yl)carboxamide], the IC50 was determined as 7.7 µM.

Molecule `Cc1nn(C)c2ncc(C(=O)NC(=O)Nc3ccc(F)c(C(F)(F)F)c3)c(N3CCN(c4ccccc4)CC3)c12` [Compound 103, [1,3-Dimethyl-4-(4-phenylpiperazinyl)pyrazolo[5,4-b]pyridin-5-yl]-N-({[4-fluoro-3-(trifluoromethyl)phenyl]amino}carbonyl)carboxamide] registered an IC50 of 2 µM. This IC50 lies about 3.9-fold lower than the previous one.

As for `Cc1nn(C)c2ncc(C(=O)NC(=O)Nc3cc(C(F)(F)F)cc(C(F)(F)F)c3)c(N3CCN(C)CC3)c12` [Compound 91], it took 3 µM to reach half-maximal inhibition (IC50).

`Cc1nn(C)c2ncc(C(=O)NC(=O)Nc3ccc(F)c(C(F)(F)F)c3)c(N(C)C)c12` [Compound 44, [4-(Dimethylamino)-1,3-dimethylpyrazolo[5,4-b]pyridin-5-yl]-N-({[4-fluoro-3-(trifluoromethyl)phenyl]amino}carbonyl)carboxamide] came in with an IC50 of 8.2 µM.

The molecule `Cc1nn(C)c2ncc(C(=O)NC(=O)Nc3cc(O)cc(C(F)(F)F)c3)c(N3CCN(C)CC3)c12` [Compound 89] gave an IC50 of 4 µM.

`Cc1nn(C)c2ncc(C(=O)NC(=O)Nc3cccc(Br)c3)c(N3CCN(C)CC3)c12` [Compound 69] yielded an IC50 of 4 µM.

With `Cc1nn(C)c2ncc(C(=O)NC(=O)Nc3cccc(-c4nccs4)c3)c(N3CCN(C)CC3)c12` [Compound 78], the IC50 stood at 0.9 µM.

`Cc1nn(C)c2ncc(C(=O)NC(=O)Nc3ccc(C(=O)O)c(OC(C)C)c3)c(N3CCN(C)CC3)c12` [Compound 76] showed an IC50 of 4 µM.

In the case of `Cc1nn(C)c2ncc(C(=O)NC(=O)Nc3ccc(Cl)c(Cl)c3)c(N3CCN(C)CC3)c12` [Compound 71], the IC50 was determined as 4 µM.

Regarding `Cc1nn(C)c2ncc(C(=O)NC(=O)Nc3cccc(OC(C)C)c3)c(N3CCN(C)CC3)c12` [Compound 75], the IC50 was 0.7 µM.

Regarding `Cc1nn(C)c2ncc(C(=O)NC(=O)Nc3ccc(F)c(C(F)(F)F)c3)c(N3CCNCC3)c12` [Compound 67], the 50% inhibitory concentration (IC50) came out at 1.8 µM.

`Cc1nn(C)c2ncc(C(=O)NC(=O)Nc3ccc(F)c(C(F)(F)F)c3)c(NCCN(C)C)c12` [Compound 46, (4-{[2-(Dimethylamino)ethyl]amino}-1,3-dimethylpyrazolo[5,4-b]pyridin-5-yl)-N-({[4-fluoro-3-(trifluoromethyl)phenyl]amino}carbonyl)carboxamide hydrochloride]: the 50% inhibitory concentration (IC50) is 2 µM.

`Cc1nn(C)c2ncc(C(=O)NC(=O)Nc3cccc(-c4ccccc4)c3)c(N3CCN(C)CC3)c12` [Compound 80] had an IC50 of 4 µM.

For `Cc1nn(C)c2ncc(C(=O)NC(=O)Nc3ccc(F)c(C(F)(F)F)c3)c(N3CCOCC3)c12` [Compound 65, (1,3-Dimethyl-4-morpholin-4-ylpyrazolo[5,4-b]pyridin-5-yl)-N-({[4-fluoro 3-(trifluoromethyl)phenyl]amino}carbonyl)carboxamide], 10 µM corresponded to half-maximal inhibition (IC50).
